Measurements as given in patent publication US12568967B2, “Compositions comprising pyridine carboxylate herbicides with synthetic auxin herbicides or auxin transport inhibitors” (priority 2018, dated 2026).

Experiments:
[1] = tested on: Galium aparine (cleavers, GALAP); test: Greenhouse postemergence trial GALAP; format: in vivo; conditions: c1-3 Compound A 7.5/10/15; c4 Aminopyralid 5; c5-7 A 7.5/10/15 + Aminopyralid 5 g/ha
Protocol: (§1) Seeds of the desired test plant species were planted in a 90:10% v/v (volume/volume) mixture of PRO-MIX® BX (Premier Tech Horticulture, Quakertown, PA, USA) and PROFILE® GREENS GRADE™ (Profile Products LLC, Buffalo Grove, IL, USA) planting mixture, which typically has a pH of 5.2 to 6.2 and an organic matter content of at least 50 percent, in plastic pots with a surface area of 103.2 square centimeters (cm^2). […] The plants were grown for 7-36 days (d) in a greenhouse with an approximate 14-hour (h) photo-period which was maintained at about 23° C. during the day and 22° C. during the night. Nutrients and water were added on a regular basis and supplemental lighting was provided with overhead metal halide 1000-Watt lamps as necessary. The plants were employed for testing when they reached the second or third true leaf stage.
(§2) Emulsifiable concentrates of each of each pyridine carboxylate herbicide (Compound A or Compound B) were prepared at 100 grams acid equivalent per liter (g ae/L). The emulsifiable concentrates also included a safener, cloquintocet-mexyl, at 120 grams active ingredient per liter (g ai/L), unless otherwise noted below. An aliquot of each emulsifiable concentrate was placed in a 25 mL glass vial and diluted with an aqueous mixture of 1.25% (v/v) ACTIROB® B esterified rapeseed oil (Bayer Crop Science, Research Triangle Park, NC, USA) or MSO® Concentrate with LECI-TECH® methylated soybean oil (Loveland Products, Loveland, CO, USA) to obtain concentrated stock solutions at the highest application rate for each herbicide, based upon a 12 milliliter (mL) application volume at a rate of 187 liters per hectare (L/ha). The concentrated stock solutions were further diluted with an aqueous mixture of 1.25% v/v ACTIROB® B or MSO® Concentrate with LECI-TECH® to obtain stock solutions at reduced application rates for each herbicide. Spray solutions of the herbicide combinations (Compound A or Compound B plus synthetic auxin herbicide or auxin transport inhibitor) were prepared by adding weighed amounts or aliquots of the synthetic auxin herbicide or auxin transport inhibitor to the stock solutions of Compound A or Compound B to form 12-mL spray solutions in two-way combinations.
(§3) The spray solutions were applied to the plant material with an overhead Mandel track sprayer equipped with 8002E nozzles calibrated to deliver 187 L/ha over an application area of 0.503 square meters (m^2) at a spray height of 18 inches (43 centimeters (cm)) above the average plant canopy. Control plants were sprayed in the same manner with the solvent blank. All pyridine carboxylate herbicide (component a) application rates are given as “g ae/ha” and all synthetic auxin herbicide or auxin transport inhibitor (component b) application rates are given as “g ai/ha.”
(§4) The treated plants and control plants were placed in a greenhouse as described above and watered by sub-irrigation to prevent wash-off of the test compounds. After 20-22 d, the condition of the test plants as compared with that of the control plants was determined visually and scored on a scale of 0 to 100 percent where 0 corresponds to no injury and 100 corresponds to complete kill.

[2] = tested on: Hordeum vulgare (spring barley, HORVS); format: in vivo
[3] = tested on: Anthemis arvensis (field chamomile, ANTAR); test: Greenhouse postemergence trial ANTAR; format: in vivo
[4] = tested on: Hordeum vulgare (winter barley, HORVW); test: Greenhouse postemergence crop phytotoxicity HORVW; format: in vivo
Protocol: as §1, §2, §3, §4

[5] = tested on: Veronica persica (bird's-eye speedwell, VERPE); test: Greenhouse postemergence trial VERPE; format: in vivo
[6] = tested on: Matricaria chamomilla (wild chamomile, MATCH); test: Greenhouse postemergence trial MATCH; format: in vivo; conditions: Matricaria chamomilla, post-emergence; MATCH; Aminopyralid 10 g/ha; read-out: % visual injury Obs;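 note: greenhouse plants sprayed at second to third true leaf stage, injury rated by eye 20-22 d later versus solvent-blank controls on 0–100 scale, 0 no injury, 100 complete kill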
[7] = tested on: Viola arvensis (field violet, VIOAR); test: Greenhouse postemergence trial VIOAR; format: in vivo
[8] = tested on: Lamium purpureum (purple deadnettle, LAMPU); test: Greenhouse postemergence trial LAMPU
Protocol: The plants were grown for 7-36 days (d) in a greenhouse with an approximate 14-hour (h) photo-period which was maintained at about 23° C. during the day and 22° C. during the night. Nutrients and water were added on a regular basis and supplemental lighting was provided with overhead metal halide 1000-Watt lamps as necessary. The plants were employed for testing when they reached the second or third true leaf stage.
The emulsifiable concentrates also included a safener, cloquintocet-mexyl, at 120 grams active ingredient per liter (g ai/L), unless otherwise noted below.
Control plants were sprayed in the same manner with the solvent blank. All pyridine carboxylate herbicide (component a) application rates are given as “g ae/ha” and all synthetic auxin herbicide or auxin transport inhibitor (component b) application rates are given as “g ai/ha.”
as §4

[9] = tested on: Veronica hederifolia (ivyleaf speedwell, VERHE); test: Greenhouse postemergence trial VERHE; format: in vivo
Protocol: as §1, §2, §3, §4

[10] = tested on: Salsola kali (Russian thistle, SASKR); test: Greenhouse postemergence trial SASKR; format: in vivo; conditions: Salsola kali, post-emergence; SASKR; Aminopyralid 10 g/ha; read-out: % visual injury Obs;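 note: greenhouse plants sprayed at second or third true leaf stage, injury rated by eye after 20-22 d against solvent-blank controls, 0 meaning no injury, 100 complete kill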
[11] = tested on: Papaver rhoeas (corn poppy), herbicide-resistant (PAPRH-R); test: Greenhouse postemergence trial PAPRH-R; format: in vivo
Protocol: as §1, §2, §3, §4

[12] = tested on: Viola tricolor (wild pansy, VIOTR); test: Greenhouse postemergence trial VIOTR;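 note: greenhouse plants sprayed at second to third true leaf stage, injury rated visually after 20-22 d against solvent-blank sprayed controls, 0 meaning no injury and 100 complete kill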
[13] = tested on: Polygonum convolvulus (wild buckwheat, POLCO); test: Greenhouse postemergence trial POLCO; format: in vivo; conditions: Fallopia convolvulus, post-emergence, read-out: % visual injury Obs
Protocol: as §1, §2, §3, §4

[14] = tested on: Matricaria discoidea (pineapple weed, MATMT); test: Greenhouse postemergence trial MATMT; format: in vivo
[15] = tested on: Capsella bursa-pastoris (shepherd's purse, CAPBP); test: Greenhouse postemergence trial CAPBP; format: in vivo
[16] = tested on: Matricaria inodora (false chamomile, MATIN); test: Greenhouse postemergence trial MATIN; format: in vivo
[17] = tested on: Sinapis arvensis (wild mustard, SINAR); test: Greenhouse postemergence trial SINAR; format: in vivo; conditions: Mutarda arvensis, post-emergence; SINAR; Aminopyralid 10 g/ha; read-out: % visual injury Obs
[18] = tested on: Cyanus segetum (cornflower, CENCY); test: Greenhouse postemergence trial CENCY; format: in vivo
[19] = tested on: Papaver rhoeas (corn poppy, PAPRH); test: Greenhouse postemergence trial PAPRH; format: in vivo
[20] = tested on: Brassica napus (winter rape, BRSNW); test: Greenhouse postemergence trial BRSNW; format: in vivo; conditions: Brassica napus, post-emergence, read-out: % visual injury Obs
[21] = tested on: Kochia scoparia (kochia, KCHSC); test: Greenhouse postemergence trial KCHSC; format: in vivo; conditions: Bassia scoparia, post-emergence; KCHSC; Aminopyralid 10 g/ha; read-out: % visual injury Obs
Protocol: as §1, §2, §3, §4

[22] = tested on: Cirsium arvense (Canadian thistle, CIRAR); test: Greenhouse postemergence trial CIRAR; format: in vivo; conditions: Cirsium arvense, post-emergence; CIRAR; Aminopyralid 10 g/ha; read-out: % visual injury Obs
[23] = tested on: Triticum aestivum (spring wheat, TRZAS); format: in vivo
[24] = tested on: Stellaria media (chickweed, STEME); test: Greenhouse postemergence trial STEME; format: in vivo
[25] = tested on: Triticum aestivum (winter wheat, TRZAW); test: Greenhouse postemergence crop phytotoxicity TRZAW; format: in vivo
[26] = c1-3 Compound A 7.5/10/15, c4 Aminopyralid 5, c5-7 A 7.5/10/15 + Aminopyralid 5 g/ha
[27] = Papaver rhoeas, post-emergence, read-out: % visual injury Obs

Nc1cc(Cl)nc(C(=O)O)c1Cl [Aminopyralid, aminopyralid, reference compound]
% visual injury [1]: 60% | % visual injury Obs ([2]; HORVS, Aminopyralid 10 g/ha): 0% | % visual injury (crop phytotoxicity) [2, 26]: 0% | pest or weed control at 10 g/ha ([3]; Anthemis arvensis, post-emergence, read-out: % visual injury Obs): 60% | % visual injury [3, 26]: 10% | % visual injury Obs ([4]; HORVW, Aminopyralid 10 g/ha): 0% | % visual injury (crop phytotoxicity) [4, 26]: 0% | pest or weed control at 10 g/ha ([5]; Veronica persica, post-emergence, read-out: % visual injury Obs): 10% | % visual injury [5, 26]: 0% | pest or weed control at 10 g/ha [6]: 10% | pest or weed control at 10 g/ha ([7]; Viola arvensis, post-emergence, read-out: % visual injury Obs): 10% | % visual injury [7, 26]: 25% | pest or weed control at 10 g/ha ([8]; Lamium purpureum, post-emergence, read-out: % visual injury Obs): 10% | % visual injury [8, 26]: 0% | pest or weed control at 10 g/ha ([9]; Veronica hederifolia, post-emergence, read-out: % visual injury Obs): 25% | % visual injury [9, 26]: 0% | pest or weed control at 10 g/ha [10]: 20% | pest or weed control at 10 g/ha [11, 27]: 65% | % visual injury [11, 26]: 50% | pest or weed control at 10 g/ha ([12]; Viola tricolor, post-emergence, read-out: % visual injury Obs): 10% | % visual injury [12, 26]: 0% | pest or weed control at 10 g/ha [13]: 75% | pest or weed control at 10 g/ha ([14]; Matricaria discoidea, post-emergence, read-out: % visual injury Obs): 0% | % visual injury [14, 26]: 0% | pest or weed control at 10 g/ha ([15]; Capsella bursa-pastoris, post-emergence, read-out: % visual injury Obs): 0% | % visual injury [15, 26]: 0% | pest or weed control at 10 g/ha ([16]; Tripleurospermum inodorum, post-emergence, read-out: % visual injury Obs): 60% | % visual injury [16, 26]: 10% | pest or weed control at 10 g/ha [17]: 20% | pest or weed control at 10 g/ha ([18]; Centaurea cyanus, post-emergence, read-out: % visual injury Obs): 65% | % visual injury [18, 26]: 50% | pest or weed control at 10 g/ha [19, 27]: 65% | % visual injury [19, 26]: 30% | plant injury at 10 g/ha [20]: 10% | pest or weed control at 10 g/ha [21]: 10% | pest or weed control at 10 g/ha [22]: 60% | % visual injury Obs ([23]; TRZAS, Aminopyralid 10 g/ha): 0% | % visual injury (crop phytotoxicity) [23, 26]: 0% | pest or weed control at 10 g/ha ([24]; Stellaria media, post-emergence, read-out: % visual injury Obs): 5% | % visual injury [24, 26]: 0% | % visual injury Obs ([25]; TRZAW, Aminopyralid 10 g/ha): 0% | % visual injury (crop phytotoxicity) [25, 26]: 0%
